Some results are limits rather than exact numbers.

One test concerns the target T1, Endothelial lipase (EL) (Homo sapiens, UniProt Q9Y5X9).
T1 construct: HT-1080 cells, which were transformed by RAGE technology (Athersys) to overexpress endogenous EL; endogenous in cells; conditioned medium used as the enzyme source
T1 sequence (Q9Y5X9 21-500): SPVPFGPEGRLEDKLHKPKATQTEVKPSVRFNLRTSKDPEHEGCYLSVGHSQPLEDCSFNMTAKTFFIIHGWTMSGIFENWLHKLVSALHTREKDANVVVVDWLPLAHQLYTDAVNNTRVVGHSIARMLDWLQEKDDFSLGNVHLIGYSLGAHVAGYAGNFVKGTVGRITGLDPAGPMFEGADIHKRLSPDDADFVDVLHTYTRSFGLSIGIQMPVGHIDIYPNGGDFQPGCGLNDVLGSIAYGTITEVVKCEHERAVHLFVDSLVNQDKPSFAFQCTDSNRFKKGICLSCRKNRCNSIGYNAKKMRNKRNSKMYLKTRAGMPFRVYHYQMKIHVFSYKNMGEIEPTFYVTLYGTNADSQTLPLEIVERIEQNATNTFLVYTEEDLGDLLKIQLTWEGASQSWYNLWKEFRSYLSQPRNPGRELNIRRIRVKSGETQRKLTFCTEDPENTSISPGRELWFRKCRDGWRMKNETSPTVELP
The experiment in a line: Endothelial lipase (EL) enzymatic assay with fluorescent substrate A10070 in DMPG vesicles. It counts as biochemical. Particulars: conditioned media from HT-1080 cells overexpressing endogenous EL; 20 min preincubation at 37° C.; read-out: EL IC50. The gist of the method:
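EL activity was followed as a fluorescence rate (488/530 nm, reads every 20 s for 10 min, linear slope) on A10070 doped at 0.05 mole fraction into sonicated DMPG vesicles. Compound was first incubated 20 min at 37 °C, pH 8.0 HEPES/CaCl2 buffer, with conditioned media from EL-overexpressing HT-1080 cells.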
Regarding `CCn1c(=O)c(O)c(C(=O)N[C@H]2CC[C@@H](c3ccccc3)CC2)n(Cc2ccccc2)c1=O` [Example 240, 3-Benzyl-1-ethyl-5-hydroxy-2,6-dioxo-N-(cis-4-phenylcyclohexyl)-1,2,3,6-tetrahydropyrimidine-4-carboxamide], the half-inhibitory concentration (IC50) amounted to 0.024 µM.

Regarding `O=C(N[C@H]1CC[C@@H](c2ccccc2)CC1)c1[nH]c(=O)n(CC(F)(F)F)c(=O)c1O` [Example 243, 5-hydroxy-2,6-dioxo-N-(cis-4-phenylcyclohexyl)-1-(2,2,2-trifluoroethyl)-1,2,3,6-tetrahydropyrimidine-4-carboxamide], the IC50 was 0.967 µM.

Regarding `O=C(N[C@@H]1CCCc2c(OCc3ccccc3)cccc21)c1[nH]c(=O)[nH]c(=O)c1O` [Example 258, (R)-N-(5-(benzyloxy)-1,2,3,4-tetrahydronaphthalen-1-yl)-5-hydroxy-2,6-dioxo-1,2,3,6-tetrahydropyrimidine-4-carboxamide], the IC50 is 0.01 µM.

Take `O=C(N[C@H]1CCc2ccc(OCc3ccccc3)cc21)c1[nH]c(=O)[nH]c(=O)c1O` [Example 259, (S)-N-(6-(benzyloxy)-2,3-dihydro-1H-inden-1-yl)-5-hydroxy-2,6-dioxo-1,2,3,6-tetrahydropyrimidine-4-carboxamide]: the half-inhibitory concentration (IC50) was determined as 0.01 µM.

Still in this test, the particulars now being: range observed in the EL assay; read-out: EL IC50 values.
`O=C(N[C@H]1CC[C@@H](c2ccccc2)CC1)c1[nH]c(=O)[nH]c(=O)c1O` [Example 238, Hydroxy-2,6-dioxo-N-(cis-4-phenylcyclohexyl)-1,2,3,6-tetrahydropyrimidine-4-carboxamide]: the IC50 is ≤ 10 µM.

Turning to `CCn1c(=O)[nH]c(C(=O)N[C@H]2CC[C@@H](c3ccccc3)CC2)c(O)c1=O` [Example 239, 1-Ethyl-5-hydroxy-2,6-dioxo-N-(cis-4-phenylcyclohexyl)-1,2,3,6-tetrahydropyrimidine-4-carboxamide], the 50% inhibitory concentration (IC50) was ≤ 10 µM.

Regarding `CCn1c(=O)c(O)c(C(=O)N[C@H]2CC[C@@H](c3ccccc3)CC2)n(Cc2ccccc2)c1=O` [Example 240, 3-Benzyl-1-ethyl-5-hydroxy-2,6-dioxo-N-(cis-4-phenylcyclohexyl)-1,2,3,6-tetrahydropyrimidine-4-carboxamide], the concentration for half-maximal inhibition (IC50) is ≤ 10 µM.

For `Cn1c(C(=O)N[C@H]2CC[C@@H](c3ccccc3)CC2)c(O)c(=O)[nH]c1=O` [Example 241, 5-Hydroxy-3-methyl-2,6-dioxo-N-(cis-4-phenylcyclohexyl)-1,2,3,6-tetrahydropyrimidine-4-carboxamide], the 50% inhibitory concentration (IC50) was ≤ 10 µM.

As to `Cn1c(=O)[nH]c(C(=O)N[C@H]2CC[C@@H](c3ccccc3)CC2)c(O)c1=O` [Example 242, 5-hydroxy-1-methyl-2,6-dioxo-N-(cis-4-phenylcyclohexyl)-1,2,3,6-tetrahydropyrimidine-4-carboxamide], the IC50 is ≤ 10 µM.

Regarding `O=C(N[C@H]1CC[C@@H](c2ccccc2)CC1)c1[nH]c(=O)n(CC(F)(F)F)c(=O)c1O` [Example 243, 5-hydroxy-2,6-dioxo-N-(cis-4-phenylcyclohexyl)-1-(2,2,2-trifluoroethyl)-1,2,3,6-tetrahydropyrimidine-4-carboxamide], the IC50 is ≤ 10 µM.

With `O=C(N[C@H]1CCCc2ccccc21)c1[nH]c(=O)[nH]c(=O)c1O` [Example 245, (S)-5-hydroxy-2,6-dioxo-N-(1,2,3,4-tetrahydronaphthalen-1-yl)-1,2,3,6-tetrahydropyrimidine-4-carboxamide], the IC50 was ≤ 10 µM.

As to `O=C(N[C@H]1CCCc2c(OCC(F)(F)F)cccc21)c1[nH]c(=O)[nH]c(=O)c1O` [Example 246, (S)-5-hydroxy-2,6-dioxo-N-(5-(2,2,2-trifluoroethoxy)-1,2,3,4-tetrahydronaphthalen-1-yl)-1,2,3,6-tetrahydropyrimidine-4-carboxamide], the IC50 is ≤ 10 µM.

On to `O=C(N[C@H]1C[C@@H](c2ccccc2)c2ccccc21)c1[nH]c(=O)[nH]c(=O)c1O` [Example 247, 5-hydroxy-2,6-dioxo-N-((1S,3S)-3-phenyl-2,3-dihydro-1H-inden-1-yl)-1,2,3,6-tetrahydropyrimidine-4-carboxamide], for which the IC50 is ≤ 10 µM.

As for `O=C(N[C@@H]1CCc2ccc(C(F)(F)F)cc21)c1[nH]c(=O)[nH]c(=O)c1O` [Example 248, (R)-5-hydroxy-2,6-dioxo-N-(6-(trifluoromethyl)-2,3-dihydro-1H-inden-1-yl)-1,2,3,6-tetrahydropyrimidine-4-carboxamide], the IC50 was ≤ 10 µM.

For `O=C(N[C@@H]1CCc2cc(C(F)(F)F)ccc21)c1[nH]c(=O)[nH]c(=O)c1O` [Example 249, (R)-5-hydroxy-2,6-dioxo-N-(5-(trifluoromethyl)-2,3-dihydro-1H-inden-1-yl)-1,2,3,6-tetrahydropyrimidine-4-carboxamide], the IC50 was ≤ 10 µM.

Consider `O=C(N[C@@H]1CC[C@H](c2ccccc2)c2ccccc21)c1[nH]c(=O)[nH]c(=O)c1O` [Example 250, 5-hydroxy-2,6-dioxo-N-((1R,4R)-4-phenyl-1,2,3,4-tetrahydronaphthalen-1-yl)-1,2,3,6-tetrahydropyrimidine-4-carboxamide], for which the IC50 was ≤ 10 µM.

On to `O=C(N[C@@H]1CC[C@@H](c2ccc(Cl)c(Cl)c2)C1)c1[nH]c(=O)[nH]c(=O)c1O` [Example 251, N-((1R,3R)-3-(3,4-dichlorophenyl)cyclopentyl)-5-hydroxy-2,6-dioxo-1,2,3,6-tetrahydropyrimidine-4-carboxamide], for which the 50% inhibitory concentration (IC50) is ≤ 10 µM.

On to `O=C(N[C@H]1CC[C@@H](c2ccccc2)CC1)c1[nH]c(=O)n(CCC(F)(F)F)c(=O)c1O` [Example 252, 5-hydroxy-2,6-dioxo-N-((1s,4s)-4-phenylcyclohexyl)-1-(3,3,3-trifluoropropyl)-1,2,3,6-tetrahydropyrimidine-4-carboxamide], for which the 50% inhibitory concentration (IC50) is ≤ 10 µM.

On to `CC(C)Cn1c(=O)[nH]c(C(=O)N[C@H]2CC[C@@H](c3ccccc3)CC2)c(O)c1=O` [Example 253, 5-hydroxy-1-isobutyl-2,6-dioxo-N-((1s,4s)-4-phenylcyclohexyl)-1,2,3,6-tetrahydropyrimidine-4-carboxamide], for which the IC50 was ≤ 10 µM.

Turning to `O=C(N[C@@H]1CCCc2c1cccc2C(F)(F)F)c1[nH]c(=O)[nH]c(=O)c1O` [Example 254, (R)-5-hydroxy-2,6-dioxo-N-(5-(trifluoromethyl)-1,2,3,4-tetrahydronaphthalen-1-yl)-1,2,3,6-tetrahydropyrimidine-4-carboxamide], the IC50 was ≤ 10 µM.

Take `O=C(N[C@@H]1CCCc2c(OCC(F)(F)F)cccc21)c1[nH]c(=O)[nH]c(=O)c1O` [Example 255, (R)-5-hydroxy-2,6-dioxo-N-(5-(2,2,2-trifluoroethoxy)-1,2,3,4-tetrahydronaphthalen-1-yl)-1,2,3,6-tetrahydropyrimidine-4-carboxamide]: the half-inhibitory concentration (IC50) is ≤ 10 µM.

On to `O=C(N[C@@H]1CCCc2cc(OCC(F)(F)F)ccc21)c1[nH]c(=O)[nH]c(=O)c1O` [Example 256, (R)-5-hydroxy-2,6-dioxo-N-(6-(2,2,2-trifluoroethoxy)-1,2,3,4-tetrahydronaphthalen-1-yl)-1,2,3,6-tetrahydropyrimidine-4-carboxamide], for which the half-maximal inhibitory concentration (IC50) is ≤ 10 µM.

On to `O=C(N[C@H]1CC[C@@H](c2cccc(C(F)(F)F)c2)CC1)c1[nH]c(=O)[nH]c(=O)c1O` [Example 257, 5-hydroxy-2,6-dioxo-N-((1s,4s)-4-(3-(trifluoromethyl)phenyl)cyclohexyl)-1,2,3,6-tetrahydropyrimidine-4-carboxamide], for which the concentration for half-maximal inhibition (IC50) was ≤ 10 µM.

For `O=C(N[C@@H]1CCCc2c(OCc3ccccc3)cccc21)c1[nH]c(=O)[nH]c(=O)c1O` [Example 258, (R)-N-(5-(benzyloxy)-1,2,3,4-tetrahydronaphthalen-1-yl)-5-hydroxy-2,6-dioxo-1,2,3,6-tetrahydropyrimidine-4-carboxamide], the IC50 was ≤ 10 µM.

In the case of `O=C(N[C@H]1CCc2ccc(OCc3ccccc3)cc21)c1[nH]c(=O)[nH]c(=O)c1O` [Example 259, (S)-N-(6-(benzyloxy)-2,3-dihydro-1H-inden-1-yl)-5-hydroxy-2,6-dioxo-1,2,3,6-tetrahydropyrimidine-4-carboxamide], the 50% inhibitory concentration (IC50) is ≤ 10 µM.

For the molecule `O=C(N[C@H]1CC[C@@H](NC(=O)c2[nH]c(=O)[nH]c(=O)c2O)CC1)c1ccccc1` [Example 260, N-((1s,4s)-4-benzamidocyclohexyl)-5-hydroxy-2,6-dioxo-1,2,3,6-tetrahydropyrimidine-4-carboxamide], the IC50 was ≤ 10 µM.

Consider `COc1cccc2c1CCC[C@H]2NC(=O)c1[nH]c(=O)[nH]c(=O)c1O` [Example 261, (R)-5-hydroxy-N-(5-methoxy-1,2,3,4-tetrahydronaphthalen-1-yl)-2,6-dioxo-1,2,3,6-tetrahydropyrimidine-4-carboxamide], for which the concentration for half-maximal inhibition (IC50) is ≤ 10 µM.

`O=C(N[C@@H]1CCc2cc(O)ccc21)c1[nH]c(=O)[nH]c(=O)c1O` [Example 262, (R)-5-hydroxy-N-(5-hydroxy-2,3-dihydro-1H-inden-1-yl)-2,6-dioxo-1,2,3,6-tetrahydropyrimidine-4-carboxamide]: the IC50 is ≤ 10 µM.

As for `O=C(N[C@H]1CC[C@@H](C(=O)N[C@@H]2CCCc3c(OCc4ccccc4)cccc32)C1)c1[nH]c(=O)[nH]c(=O)c1O` [Example 263, N-((1S,3R)-3-((R)-5-(benzyloxy)-1,2,3,4-tetrahydronaphthalen-1-ylcarbamoyl)cyclopentyl)-5-hydroxy-2,6-dioxo-1,2,3,6-tetrahydropyrimidine-4-carboxamide], the IC50 was ≤ 10 µM.

Regarding `COc1ccc2c(c1)[C@H](NC(=O)c1[nH]c(=O)[nH]c(=O)c1O)CCC2` [Example 264, (R)-5-hydroxy-N-(7-methoxy-1,2,3,4-tetrahydronaphthalen-1-yl)-2,6-dioxo-1,2,3,6-tetrahydropyrimidine-4-carboxamide], the IC50 was ≤ 10 µM.

Regarding `COc1ccc2c(c1)[C@@H](NC(=O)c1[nH]c(=O)[nH]c(=O)c1O)CCC2` [Example 265, (S)-5-hydroxy-N-(7-methoxy-1,2,3,4-tetrahydronaphthalen-1-yl)-2,6-dioxo-1,2,3,6-tetrahydropyrimidine-4-carboxamide], the IC50 was ≤ 10 µM.

For the origin of these results see US9199946B2, “Pyrimidinone carboxamide inhibitors of endothelial lipase” (BRISTOL-MYERS SQUIBB COMPANY, priority 2012, dated 2015).
